Test results reported in ChEMBL document CHEMBL1158279, “Isolation and structure of leukotriene-A4 hydrolase inhibitor: 8(S)-amino-2(R)-methyl-7-oxononanoic acid produced by Streptomyces diastaticus” (J Nat Prod, 1996).

Columns and labels:
[1] = biological target: T1, Leukotriene A-4 hydrolase (Homo sapiens, UniProt P09960); experiment: Inhibition of human recombinant LTA4 aminopeptidase activity spectrophotometric analysis
T1 sequence (P09960 whole entry): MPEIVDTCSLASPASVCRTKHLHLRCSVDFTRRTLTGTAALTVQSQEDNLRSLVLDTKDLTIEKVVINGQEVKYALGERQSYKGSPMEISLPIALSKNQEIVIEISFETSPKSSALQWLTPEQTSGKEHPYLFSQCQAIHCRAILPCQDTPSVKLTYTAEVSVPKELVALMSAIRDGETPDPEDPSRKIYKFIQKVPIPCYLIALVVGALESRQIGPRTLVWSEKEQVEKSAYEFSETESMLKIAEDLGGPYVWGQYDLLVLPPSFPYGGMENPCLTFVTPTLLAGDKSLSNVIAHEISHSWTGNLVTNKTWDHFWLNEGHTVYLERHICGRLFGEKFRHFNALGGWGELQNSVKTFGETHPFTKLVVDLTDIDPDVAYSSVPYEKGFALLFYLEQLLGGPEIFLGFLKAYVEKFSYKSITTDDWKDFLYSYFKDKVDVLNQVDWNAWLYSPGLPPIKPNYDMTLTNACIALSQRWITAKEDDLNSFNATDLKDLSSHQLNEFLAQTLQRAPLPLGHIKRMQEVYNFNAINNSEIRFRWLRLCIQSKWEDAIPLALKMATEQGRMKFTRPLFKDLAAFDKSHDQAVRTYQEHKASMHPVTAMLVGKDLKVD

[2] = biological target: T1, Leukotriene A-4 hydrolase; experiment: Inhibition of human recombinant LTA4 hydrolase assessed as LTB4 production after 30 mins by ELISA
Blood [3] = experiment: Inhibition of LTB4 production in human whole blood after 15 mins by ELISA; assay type: functional, tissue-based; details: 0.25 h
[4] = biological target: T2, Angiotensin-converting enzyme (Oryctolagus cuniculus, UniProt P12822); experiment: Inhibition of rabbit lung ACE
T2 sequence (P12822 whole entry): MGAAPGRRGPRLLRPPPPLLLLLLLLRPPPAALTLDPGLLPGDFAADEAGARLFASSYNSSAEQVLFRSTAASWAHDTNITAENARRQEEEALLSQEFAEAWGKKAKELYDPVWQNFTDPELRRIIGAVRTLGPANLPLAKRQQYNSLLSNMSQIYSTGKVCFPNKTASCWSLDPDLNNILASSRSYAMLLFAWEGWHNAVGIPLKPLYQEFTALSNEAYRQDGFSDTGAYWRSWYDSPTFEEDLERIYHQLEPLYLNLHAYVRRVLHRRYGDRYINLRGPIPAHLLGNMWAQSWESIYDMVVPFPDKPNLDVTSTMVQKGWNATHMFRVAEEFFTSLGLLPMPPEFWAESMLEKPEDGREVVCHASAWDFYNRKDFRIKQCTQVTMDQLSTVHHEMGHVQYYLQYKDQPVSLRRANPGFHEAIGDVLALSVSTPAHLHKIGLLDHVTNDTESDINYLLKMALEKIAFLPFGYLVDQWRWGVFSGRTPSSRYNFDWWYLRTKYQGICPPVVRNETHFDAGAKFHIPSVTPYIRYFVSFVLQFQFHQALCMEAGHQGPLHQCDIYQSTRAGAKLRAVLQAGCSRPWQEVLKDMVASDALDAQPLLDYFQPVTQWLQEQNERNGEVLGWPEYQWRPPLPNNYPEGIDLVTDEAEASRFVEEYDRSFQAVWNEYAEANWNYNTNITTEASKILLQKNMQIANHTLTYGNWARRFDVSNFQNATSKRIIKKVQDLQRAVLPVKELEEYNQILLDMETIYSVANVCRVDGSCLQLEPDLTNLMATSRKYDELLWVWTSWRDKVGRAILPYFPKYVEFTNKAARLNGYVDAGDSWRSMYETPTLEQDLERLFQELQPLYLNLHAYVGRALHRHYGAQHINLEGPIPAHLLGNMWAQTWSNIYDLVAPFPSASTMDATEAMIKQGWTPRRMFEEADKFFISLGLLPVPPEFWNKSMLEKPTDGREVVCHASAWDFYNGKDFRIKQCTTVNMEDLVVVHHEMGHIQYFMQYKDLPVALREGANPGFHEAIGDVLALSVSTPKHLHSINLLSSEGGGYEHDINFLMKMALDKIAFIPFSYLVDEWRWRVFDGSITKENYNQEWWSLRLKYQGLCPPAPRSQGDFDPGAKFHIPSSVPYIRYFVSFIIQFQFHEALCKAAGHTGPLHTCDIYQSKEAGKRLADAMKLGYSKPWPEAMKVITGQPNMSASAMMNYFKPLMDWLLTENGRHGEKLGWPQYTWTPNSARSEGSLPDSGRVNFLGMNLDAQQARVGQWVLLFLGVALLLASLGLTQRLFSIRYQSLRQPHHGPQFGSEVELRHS

Blood [5] = experiment: Inhibition of TxB2 production in human whole blood after 15 mins by ELISA; assay type: functional, tissue-based; details: 0.25 h

## C[C@H](N)C(=O)CCCC[C@@H](C)C(=O)O
[1]
  IC50: 0.3 µM
[2]
  IC50: 0.57 µM
Blood [3]
  IC50: 7 µM
[4]
  IC50: > 100 µM
Blood [5]
  IC50: > 30 µM
